Test in all cases: NCI anticancer screen, dose series, 48 h
The subject of experiment [1] is MDA-MB-231 breast.
For experiment [2], the system named is A498 renal.
In experiment [3] the test system is SN12C renal.
For experiment [4], the system named is HOP-92 NSCLC.
Experiment [5] relates to SR leukemia.
The test system of experiment [6] is BT-549 breast.
For experiment [7], the system named is NCI-H226 lung.
In experiment [8] the test system is DU-145 prostate.
Experiment [9] concerns RXF 393 renal.
In experiment [10] the test system is HCT-116 colon.

Values joined by “and” are separate entries in the source; they are usually repeats but may differ in a detail not shown here. Equal values may be shown once.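 All cell lines were grown in 96-well plates and treated with compound for 48 hours. GI50: concentration for 50% inhibition of growth. Definition used: TGI = concentration required for complete inhibition of growth.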

As for `COc1cccc(/C=C/C(=O)c2cc3c(N)c(C(=O)Nc4ccccc4C)sc3nc2C)c1`, the GI50 in [1] was 1.46 µM; in experiment [2], 0.989 µM; in experiment [3], 0.953 µM; in experiment [4], 0.823 µM; in experiment [5] it was 1.09 µM; in experiment [6] it was 1.5 µM. In addition, the GI50 was 1.07 µM in experiment [7], 1.32 µM in experiment [8], 0.768 µM in [9] and 0.822 µM in [10]. Further, the TGI in [1] was 4.08 µM; in [2], 4.4 µM; in experiment [3], 2.13 µM; in [4], 2.72 µM; in experiment [5], 4.2 µM; in experiment [6] it was 5.83 µM. For the same compound, the TGI in experiment [7] came out at 2.92 µM; in experiment [8] it was 4.08 µM; in [9], 1.53 µM; in experiment [10] it was 1.5 µM.

Consider `CC(=O)Nc1cccc(-n2c(=O)n(C3CC3)c(=O)c3c(Nc4ccc(I)cc4F)n(C)c(=O)c(C)c32)c1`, for which the GI50 in experiment [1] is 0.0345 µM; in experiment [2] it was < 0.01 µM and 0.00596 µM; in [3], 2.39 µM and > 2.41 µM; in [4], < 0.01 µM and 0.011 µM; in [5], 3.65 µM and > 10 µM; in experiment [6] it was 6.33 µM and > 9.61 µM. Also, the GI50 was 4.37 µM and > 4.88 µM in experiment [7]; 3.36 µM and > 4.01 µM in experiment [8]; 0.0661 µM and 0.148 µM in experiment [9]; < 0.01 µM and 0.00986 µM in experiment [10]. Also, the TGI was 14 µM and > 10 µM in [1]; < 0.0306 µM and 0.0672 µM in experiment [2]; more than 100 µM in [3]; 45.6 µM and > 10 µM in experiment [5]; 35.5 µM and > 10 µM in experiment [6]; 47.8 µM and > 10 µM in experiment [7]. The TGI was 93.9 µM and > 10 µM in [8]; 13.1 µM and > 5.97 µM in experiment [9]; 12.5 µM and > 10 µM in [10].

With `NC(CO)Cc1cnc[nH]1` (centres undefined), the TGI in [1] is more than 100 µM; in experiment [2] it was more than 100 µM; in experiment [3], more than 100 µM; in experiment [4], more than 10 µM; in [5], more than 100 µM; in experiment [6], more than 100 µM. Also, the TGI in experiment [7] was more than 100 µM; in [8], more than 100 µM; in [9], more than 10 µM; in experiment [10] it was more than 100 µM. Further, the GI50 in experiment [2], in experiment [3], in experiment [5], in experiment [7] and in experiment [10] was more than 100 µM throughout.

Take `COc1ccc(C(=O)Nc2ncc(Cc3ccc(Cl)cc3)s2)cc1`: the GI50 was 0.176 µM in experiment [1]; 0.0216 µM in experiment [2]; 0.0946 µM in experiment [3]; 3.71 µM in [4]; 0.0375 µM in experiment [5]; 1 µM in experiment [6]. Moreover, the GI50 is 0.0771 µM in experiment [7], 0.104 µM in [8], 0.048 µM in [9] and 0.0509 µM in [10]. Moreover, the TGI in experiment [1] is 47.3 µM; in [2], 0.0848 µM; in [3], more than 100 µM; in experiment [4] it was more than 100 µM; in [5], more than 70.4 µM; in experiment [6] it was more than 100 µM. For the same compound, the TGI was more than 64.3 µM in [7], more than 100 µM in [8], 0.927 µM in experiment [9] and more than 100 µM in experiment [10].

`Cc1ccc2c(C(C[N+](=O)[O-])c3cccs3)c(-c3ccccc3)[nH]c2c1` (centres undefined): the GI50 was 1.65 µM in [1]; 1.05 µM in experiment [2]; 1.89 µM in experiment [3]; 4.03 µM in experiment [4]; 1.43 µM in [5]; 1.92 µM in [6]. The GI50 in experiment [7] is 3.38 µM; in experiment [8], 3.7 µM; in experiment [9], 1.16 µM; in experiment [10], 1.31 µM. Besides, the TGI was 6.31 µM in [1]; 4.34 µM in experiment [2]; 7.01 µM in experiment [3]; 9.24 µM in experiment [4]; more than 33.3 µM in [5]; 7.29 µM in experiment [6]. For the same compound, the TGI was found to be 8.61 µM in [7], 16.9 µM in experiment [8], 4.36 µM in [9] and 4.56 µM in experiment [10].

As to `N#Cc1c(NC(=O)c2cccc(C(F)(F)F)c2)sc2c1CCC(=O)C2`, the GI50 in experiment [1] is 1.39 µM; in [2], 1.71 µM; in [3], 0.851 µM; in experiment [4] it was 1.02 µM; in [5] it was 0.347 µM; in experiment [6] it was 0.419 µM. In addition, the GI50 in experiment [7] was 1.55 µM; in experiment [8] it was 3.3 µM; in experiment [9] it was 0.391 µM; in experiment [10], 0.336 µM. Also, the TGI in experiment [1] was 3.31 µM; in [2], 5.5 µM; in experiment [3] it was 4.05 µM; in [4], 3.06 µM; in [5], more than 31.8 µM; in experiment [6], 2.06 µM. Further, the TGI is 5.02 µM in [7], more than 100 µM in experiment [8], 1.45 µM in [9] and 1.56 µM in experiment [10].

Turning to `Fc1cccc(COc2ccc(Nc3ncncc3C#Cc3ccccc3)cc2Cl)c1`, the GI50 in experiment [1] was more than 25 µM; in [2], more than 17.1 µM; in experiment [3], more than 25 µM; in experiment [4], more than 18.8 µM; in [5] it was more than 25 µM; in experiment [6] it was more than 25 µM. Also, the GI50 in [7] was more than 25 µM; in experiment [8] it was more than 25 µM; in experiment [9], more than 25 µM; in experiment [10] it was 24.4 µM. The TGI in experiment [1], in [2], in experiment [3], in experiment [4], in experiment [5] and in experiment [6] was more than 25 µM throughout. The TGI in [7], in experiment [8], in [9] and in experiment [10] was more than 25 µM throughout.

(Values after PubChem BioAssay (NCI).)
